In patent US11912742B2, “Heterologous production of leupeptin protease inhibitors and analogs thereof” (YALE UNIVERSITY, priority 2020, dated 2024):
Where a SMILES comes first, the peptide text is derived from it.

Assays:
[1] = Spontaneous conversion of pro-pyrazinones under aerobic conditions; format: physicochemical
Plu4509 = test: In vitro enzyme assay of purified Plu4509 with leupeptin as substrate; format: biochemical, P. luminescens; conditions: His6x-tagged Plu4509; end point analysis; 1 h, 35° C.
[2] = cited from earlier work
trypsin-like proteases = conditions: cited from earlier work
[3] = test system: chymotrypsin-type proteases; conditions: previously synthesized molecules; cited from earlier work
calpain protease = conditions: cited from earlier work

SMILES | stability under aerobic conditions (conversion to pyrazinone) [1] | inhibition of chymotrypsin-type proteases [3] | also measured
CC(C)C[C@@H]1N[C@@H]2N=C(N)N3CCC[C@@]23NC1=O [compound 9] | spontaneously converted to their pyrazinone counterpart 11 | – | –
CC(C)C[C@@H]1N[C@@H]2N=C(N)N3CCC[C@]23NC1=O [compound 10] | spontaneously converted to their pyrazinone counterpart 11 | – | –
CC(=O)N[C@@H](CC(C)C)C(=O)N[C@@H](CC(C)C)C(=O)N[C@H](C=O)CCCNC(=N)N [leupeptin A, N-Acetyl-L-leucyl-L-leucyl-L-argininal] | – | – | cleavage by Plu4509: production of metabolites 10 and 11 from the substrate (Plu4509): significantly enhanced production of 10 and 11; toxicity in humans [2]: very low toxicity; inhibition of trypsin-like proteases (trypsin-like proteases): inhibits trypsin-like proteases
CC(=O)N[C@@H](CC(C)C)C(=O)N[C@@H](CC(C)C)C(=O)N[C@H](C=O)Cc1ccc(O)cc1 [leupeptin B] (Ac-Leu-Leu-Tyr-aldehyde) | – | confirmed to inhibit chymotrypsin-type proteases | –
CC(=O)NC(CC(C)C)C(=O)NC(CC(C)C)C(=O)NC(C=O)Cc1ccccc1 (stereo not drawn) [leupeptin C] (Ac-Leu-Leu-Phe-aldehyde; configuration not given here) | – | confirmed to inhibit chymotrypsin-type proteases | –
CC(C)Cc1ncc(Cc2ccc(O)cc2)[nH]c1=O [lumizinone A] | – | – | calpain protease inhibition (calpain protease): calpain protease inhibitor
